Reference: paper PMC12040169 (PLOS Biology, 2025)

Assay: in vitro
Conditions: human, hela cells, % viability
`COc1ccc(OC(C)C(=O)Nc2cc3oc4ccccc4c3cc2OC)cc1` (centres unmarked) [CBK266751] showed a viability at 28.5 h, 10 µM of 100%. `COc1nc(OCCNS(=O)(=O)c2ccc(C)cc2)nc(N(C)C)n1` [CBK266752] gave a viability at 28.5 h, 10 µM of 117%. `Cc1cc(C)c2nc(C(F)(F)F)nc(NCCCN3CCOCC3)c2c1` [CBK266753] gave a viability at 28.5 h, 10 µM of 86.4%. Molecule `N#C/C(=C/c1ccc(-c2cc(C(=O)O)cc(C(=O)O)c2)o1)c1nc2ccccc2s1` [CBK266754] has a viability at 28.5 h, 10 µM of 103%. With `CC(=O)Nc1ccc(NC(=O)CN(C2CCCCC2)S(C)(=O)=O)cc1` [CBK266755] the viability at 28.5 h, 10 µM was 93.3%. Work on `CCn1c2ccccc2c2cc(NC(=O)CN(C)S(=O)(=O)c3ccc(C)cc3)ccc21` [CBK266756] yielded a viability at 28.5 h, 10 µM of 92.8%. Work on `Cc1c(NC(=O)CSc2nnc(-c3cccc([N+](=O)[O-])c3)n2C)c(=O)n(-c2ccccc2)n1C` [CBK266757] yielded a viability at 28.5 h, 10 µM of 95.4%. `Cc1ccc(-c2nnc(N3CCN(S(=O)(=O)c4ccc(Cl)cc4)CC3)c3ccccc23)cc1` [CBK266759] showed a viability at 28.5 h, 10 µM of 96.1%. `O=C(O)c1cc(NC(=O)c2ccc3c(c2)C(=O)N(Cc2cccnc2)C3=O)cc(C(=O)O)c1` [CBK266761] gave a viability at 28.5 h, 10 µM of 108%. `N#Cc1c(NC(=O)c2cccc(S(=O)(=O)Nc3ccc(C(=O)O)cc3)c2)sc2c1CCCC2` [CBK266762] gave a viability at 28.5 h, 10 µM of 106%. In the case of `N#C/C(=C\c1ccc(OCC(=O)c2ccccc2)cc1)c1nc(-c2cccs2)cs1` [CBK266765], the viability at 28.5 h, 10 µM is reported as 95.3%. `CN(C)S(=O)(=O)c1cc(C(=O)Nc2ccc(O)cc2)c(Cl)cc1Cl` [CBK266767] gave a viability at 28.5 h, 10 µM of 95.4%. With `N#C/C(=C\c1ccc(OCC(=O)c2ccc(F)cc2)cc1)c1nc(-c2cc3ccccc3oc2=O)cs1` [CBK266769] the viability at 28.5 h, 10 µM was 90.6%. In the case of `O=C(Nc1cc([N+](=O)[O-])ccc1O)c1ccc2c(c1)C(=O)N(Cc1cccnc1)C2=O` [CBK266770], the viability at 28.5 h, 10 µM is reported as 92.7%. In the case of `CC1CCN(S(=O)(=O)c2cccc(C(=O)NNC(=O)c3cccc([N+](=O)[O-])c3)c2)CC1` [CBK266774], the viability at 28.5 h, 10 µM is reported as 98%. For `O=C(Nc1ccc(Br)cc1C(=O)O)c1ccc2c(c1)C(=O)N(Cc1cccnc1)C2=O` [CBK266776], the viability at 28.5 h, 10 µM was 96.7%. Molecule `O=C(CSCc1ccc(Cl)cc1Cl)Nc1ccc(Oc2ccc3c(c2)C(=O)NC3=O)cc1` [CBK266779] has a viability at 28.5 h, 10 µM of 92.2%. For `O=C(OCc1ccc(S(=O)(=O)c2ccccc2)cc1)c1cc(O)nc2ccccc12` [CBK266782], the viability at 28.5 h, 10 µM was 93.1%. In the case of `Cc1cc(Cl)c(S(=O)(=O)Nc2ccon2)cc1OCC(=O)NC1CCCCC1` [CBK266785], the viability at 28.5 h, 10 µM is reported as 93.5%. In the case of `O=C(CSc1ccccc1)Nc1cccc(NC(=O)c2cccs2)c1` [CBK266788], the viability at 28.5 h, 10 µM is reported as 96.7%. `Cc1ccc(-c2nnc(-c3cccc(NC(=O)CSCc4ccc(Cl)cc4)c3)o2)cc1` [CBK266789] gave a viability at 28.5 h, 10 µM of 92.3%. With `Cc1ccc(NC(=O)COc2ccccc2)c(NC(=O)c2ccccc2I)c1` [CBK266793] the viability at 28.5 h, 10 µM was 98.2%. `CCC(C(=O)Nc1cc(OC)c(OC)cc1C(=O)O)c1ccccc1` (centres unmarked) [CBK266794] showed a viability at 28.5 h, 10 µM of 106%. In the case of `Cc1nnc2sc(-c3ccc(NC(=S)NC(=O)c4cc5ccccc5o4)cc3)nn12` [CBK266795], the viability at 28.5 h, 10 µM is reported as 100%. `CC(Oc1ccc(Br)cc1)C(=O)O/N=C(\N)c1ccncc1` (centres unmarked) [CBK266797] showed a viability at 28.5 h, 10 µM of 93%. Work on `COC(=O)c1cn(C(=O)CCCN2C(=O)c3ccccc3C2=O)c2ccccc12` [CBK266799] yielded a viability at 28.5 h, 10 µM of 91.7%. In the case of `COc1cc(NC(=O)c2ccc3c(c2)C(=O)N(Cc2cccnc2)C3=O)c(C(=O)O)cc1OC` [CBK266802], the viability at 28.5 h, 10 µM is reported as 88.1%. With `CC1(C)CC(NS(=O)(=O)c2ccc(Br)cc2)CC(C)(C)N1` [CBK266805] the viability at 28.5 h, 10 µM was 97.7%. With `CC1(C)CC(NC(=O)COc2ccc([N+](=O)[O-])cc2)CC(C)(C)N1` [CBK266806] the viability at 28.5 h, 10 µM was 98%. Work on `CC(CNS(=O)(=O)c1cc(Cl)ccc1Cl)CN(C)C` (centres unmarked) [CBK266808] yielded a viability at 28.5 h, 10 µM of 108%. In the case of `Cc1ccc(NC(=O)COc2ccccc2)c(NC(=O)c2ccco2)c1` [CBK266809], the viability at 28.5 h, 10 µM is reported as 95.6%. With `O=C(Nc1ccccc1)c1ccc(N2CCN(c3ccccn3)CC2)c(S(=O)(=O)N2CCOCC2)c1` [CBK266810] the viability at 28.5 h, 10 µM was 91.7%.
